# Patent US20230276792A1, “SELECTIVE HERBICIDES BASED ON SUBSTITUTED ISOXAZOLIN CARBOXAMIDES AND CLOQUINTOCET-MEXYL” (Bayer Aktiengesellschaft, priority 2020, published 2023)
# Columns and labels:
# Assay type in all cases: in vivo
# [1] = test system: spring barley, HORVS Montoya; test: Tank-mix post-emergence crop damage, herbicide with and without safener cloquintocet-mexyl, greenhouse; parameters: key to Reduction [Difference]: damage without safener − damage with safener, % points (0–100% scale)
# Procedure: Seeds of crops (spring wheat, TRZAS; spring barley, HORVS; maize, ZEAMA) were placed in sandy loam soil in peat pots, covered with soil and cultivated in a greenhouse under good growth conditions. Two to three weeks after sowing, the test plants were treated at the 1 to 3-leaf stage. The herbicide/safener active compound combinations according to the invention, formulated as wettable powders or emulsion concentrates, and, in parallel tests, the correspondingly formulated individual active compounds were sprayed onto the green parts of the plants in various dosages using an amount of water of 300 l/ha (converted).
# The pots were returned under good growing conditions in a glasshouse and a visual assessment of herbicidal effects was made at intervals from 1 to 3 weeks after herbicide application (DAT=days after treatment). Assessment was on a percentage basis in comparison with untreated control plants (0%=no injury, 100%=complete kill).
# (§1) Reduction [Difference]=herbicide damage without safener−herbicide damage with safener
# (§2) Reduction [%]=(Reduction [Difference]*100)/herbicide damage without safener
# (§3) a) Plant Species, Variety: HORVS Montoya, Safener (SAF): Cloquintocet-Mexyl
# [2] = test system: spring wheat, TRZAS Triso; test: Safener seed treatment, post-emergence herbicide application, crop damage; details: for HER effect + SAF [%] / Reduction [%]: cloquintocet-mexyl 0, 5 g a.i./kg seed; for HER effect [%]: without safener
# Description: (§4) For safener seed treatment trials, sufficient seed amounts of the respective crops (spring wheat (TRZAS); spring barley (HORVS)) were weighed into screw cap glass bottles with a minimum volume trice of the seeds.
# (§5) As a first step, specified safeners formulated as wettable powder (WP) or wettable granules (WG) were weighed out for the required dosages (g a.i./kg seed), corresponding to the seed amounts. The safener amounts were mixed with a coloured slurry blind formulation type, pre-diluted with milk at 3.5% fat rate (25 mgs slurry formulation plus 2 ml milk per 10 grams of seed). A tube roller was used for coating. The solutions were gradually pipetted each on the rotating seeds followed by coating for min. 3 hours until all liquid had been soaked up by the seeds. Thereafter, the coated seeds were put flat on open trays for drying over night at room temperature.
# (§6) Treated seeds were then placed into pots (7 cm diameter) on the surface of sandy loam, pressed down, flat covered with additional soil and finally covered with sandy soil, also pressed down, watered, and kept under good growth conditions in a greenhouse, until the plants had reached 2-leaf-stage (BBCH 12).
# (§7) At that stage, post-emergence application of the specified herbicides was done on: • a) pot sets containing plants with safener-coated seeds as described above, • b) as a reference, pot sets of plants without seed treatment.
# (§8) The herbicides were formulated as wettable powder (WP). Equivalent to the spray area, compound amounts were weighed out and diluted related to the water application rate (300 l/ha) to an aqueous suspension plus additive (1 l/ha MERO). Dosage related equivalents were conventionally sprayed on trays with the potted plants.
# (§9) After application, the test plants were kept under good growth conditions in a greenhouse. Assessment timings were 10 and 21 days after treatment (DAT) with the herbicide, by visual scoring of the crop damage in % (comparison of untreated with treated plants, either sprayed only with herbicide or with herbicide on plants with treated seeds).
# as §1, §2
# b) Plant Species, Variety: TRZAS Triso, Safener (SAF): Cloquintocet-Mexyl
# [3] = test system: spring barley, HORVS Montoya; test: as above; parameters: key to Reduction [Difference]: % crop damage without safener minus % damage with safener; details: for Reduction [%] / HER effect + SAF / Reduction [Difference]: cloquintocet-mexyl 0, 5 g a.i./kg seed; for HER effect: without safener
# Description: as §4, §5, §6, §7, §8, §9, §1, §2, §3
# [4] = 10 DAT, HER dose 8 g a.i./ha, cloquintocet-mexyl 50 g a.i./ha
# [5] = 10 DAT, HER dose 32 g a.i./ha, cloquintocet-mexyl 100 g a.i./ha
# [6] = 21 DAT, HER dose 1, 5 g a.i./ha
# [7] = 21 DAT, HER dose 2 g a.i./ha, cloquintocet-mexyl 100 g a.i./ha
# [8] = 10 DAT, HER dose 1 g a.i./ha, cloquintocet-mexyl 50 g a.i./ha
smiles,measurement,setting,value
CC(C)OC(=O)C1CC(NC(=O)C2(C(C)(F)F)CC(c3cc(F)cc(F)c3)=NO2)CO1 (mixture of isomers) [Example 1.88],Reduction [%],"[1]; 21 DAT, HER dose 1, 5 g a.i./ha, cloquintocet-mexyl 50 g a.i./ha",50%
same,HER effect + SAF [%],"[2]; 21 DAT, HER dose 2 g a.i./ha",20%
same,Reduction [%],"[2]; 21 DAT, HER dose 2 g a.i./ha",71%
same,HER effect [%],"[2]; 21 DAT, HER dose 2 g a.i./ha",70%
same,HER effect + SAF [%],"[2]; 21 DAT, HER dose 8 g a.i./ha",20%
same,HER effect [%],"[2]; 21 DAT, HER dose 8 g a.i./ha",85%
same,Reduction [%],"[3]; 21 DAT, HER dose 2 g a.i./ha",40%
same,HER effect + SAF,"[3]; 21 DAT, HER dose 8 g a.i./ha",40%
same,Reduction [%],"[3]; 21 DAT, HER dose 8 g a.i./ha",53%
same,Reduction [Difference],"[3]; 21 DAT, HER dose 8 g a.i./ha",45
COC(=O)C1COCC1NC(=O)C1(C)CC(c2cc(F)cc(F)c2)=NO1 (mixture of isomers) [Example 1.93],HER effect + SAF,[1]; [4],60%
same,Reduction [%],[1]; [4],29%
same,Reduction [Difference],[1]; [4],25
same,HER effect + SAF,[1]; [5],60%
same,Reduction [%],[1]; [5],33%
same,Reduction [Difference],[1]; [5],30
same,HER effect + SAF [%],"[2]; 21 DAT, HER dose 2 g a.i./ha",0%
same,HER effect [%],"[2]; 21 DAT, HER dose 2 g a.i./ha",85%
same,HER effect + SAF [%],"[2]; 21 DAT, HER dose 8 g a.i./ha",10%
same,HER effect [%],"[2]; 21 DAT, HER dose 8 g a.i./ha",93%
same,HER effect + SAF [%],"[2]; 21 DAT, HER dose 32 g a.i./ha",10%
same,HER effect [%],"[2]; 21 DAT, HER dose 32 g a.i./ha",95%
same,HER effect + SAF,"[3]; 10 DAT, HER dose 32 g a.i./ha",20%
same,Reduction [%],"[3]; 10 DAT, HER dose 32 g a.i./ha",78%
same,Reduction [Difference],"[3]; 10 DAT, HER dose 32 g a.i./ha",70
COC(=O)C1(C)CC(NC(=O)C2(C(C)(F)F)CC(c3cc(F)cc(F)c3)=NO2)CO1 (mixture of isomers) [Example 1.94],Reduction [Difference],[1]; [4],90
same,HER effect + SAF [%],[2]; [6],0%
same,HER effect [%],[2]; [6],20%
same,HER effect + SAF [%],"[2]; 21 DAT, HER dose 6 g a.i./ha",10%
same,HER effect [%],"[2]; 21 DAT, HER dose 6 g a.i./ha",85%
same,HER effect + SAF [%],"[2]; 21 DAT, HER dose 24 g a.i./ha",20%
same,HER effect [%],"[2]; 21 DAT, HER dose 24 g a.i./ha",85%
same,Reduction [Difference],"[3]; 10 DAT, HER dose 8 g a.i./ha",90
same,Reduction [%],"[3]; 10 DAT, HER dose 32 g a.i./ha",89%
same,Reduction [Difference],"[3]; 10 DAT, HER dose 32 g a.i./ha",80
CSCCOC(=O)C1C=CC(NC(=O)C2(C(F)(F)F)CC(c3cc(F)cc(F)c3)=NO2)C1 (stereo not shown) [Example 1.7],HER effect + SAF [%],"[2]; 10 DAT, HER dose 2 g a.i./ha",0%
same,HER effect [%],"[2]; 10 DAT, HER dose 2 g a.i./ha",50%
same,HER effect + SAF [%],"[2]; 10 DAT, HER dose 8 g a.i./ha",30%
same,Reduction [%],"[2]; 10 DAT, HER dose 8 g a.i./ha",68%
same,HER effect [%],"[2]; 10 DAT, HER dose 8 g a.i./ha",93%
same,HER effect + SAF [%],"[2]; 10 DAT, HER dose 32 g a.i./ha",50%
same,Reduction [%],"[2]; 10 DAT, HER dose 32 g a.i./ha",46%
same,HER effect [%],"[2]; 10 DAT, HER dose 32 g a.i./ha",93%
same,HER effect + SAF,"[3]; 21 DAT, HER dose 2 g a.i./ha",30%
same,Reduction [Difference],"[3]; 21 DAT, HER dose 2 g a.i./ha",40
same,HER effect + SAF,"[3]; 21 DAT, HER dose 32 g a.i./ha",60%
same,Reduction [%],"[3]; 21 DAT, HER dose 32 g a.i./ha",37%
same,Reduction [Difference],"[3]; 21 DAT, HER dose 32 g a.i./ha",35
COC(=O)C1C=CC(NC(=O)C2(C(F)(F)F)CC(c3cccc(F)c3)=NO2)C1 (stereo not shown) [Example 1.18],Reduction [Difference],"[3]; 10 DAT, HER dose 32 g a.i./ha",80
C=CC1(C(=O)NC2C=CC(C(=O)OC)C2)CC(c2cc(F)cc(F)c2)=NO1 (stereo not shown) [Example 1.26],HER effect + SAF,[1]; [7],10%
same,Reduction [%],[1]; [7],83%
same,Reduction [Difference],[1]; [7],50
same,HER effect + SAF [%],"[2]; 21 DAT, HER dose 2 g a.i./ha",10%
same,Reduction [%],"[2]; 21 DAT, HER dose 2 g a.i./ha",89%
same,HER effect [%],"[2]; 21 DAT, HER dose 2 g a.i./ha",90%
same,HER effect + SAF [%],"[2]; 21 DAT, HER dose 8 g a.i./ha",30%
same,Reduction [%],"[2]; 21 DAT, HER dose 8 g a.i./ha",68%
same,HER effect [%],"[2]; 21 DAT, HER dose 8 g a.i./ha",93%
same,HER effect + SAF,"[3]; 21 DAT, HER dose 2 g a.i./ha",30%
same,Reduction [%],"[3]; 21 DAT, HER dose 2 g a.i./ha",68%
same,Reduction [Difference],"[3]; 21 DAT, HER dose 2 g a.i./ha",63
same,HER effect,"[3]; 21 DAT, HER dose 2 g a.i./ha",93%
same,Reduction [%],"[3]; 21 DAT, HER dose 8 g a.i./ha",47%
same,Reduction [Difference],"[3]; 21 DAT, HER dose 8 g a.i./ha",45
same,HER effect,"[3]; 21 DAT, HER dose 8 g a.i./ha",95%
CC1(C(=O)NC2C=CC(C(=O)O)C2)CC(c2cc(F)cc(F)c2)=NO1 (stereo not shown) [Example 1.36],Reduction [%],[1]; [8],38%
same,Reduction [Difference],[1]; [8],30
same,HER effect + SAF [%],"[2]; 21 DAT, HER dose 1 g a.i./ha",0%
same,HER effect [%],"[2]; 21 DAT, HER dose 1 g a.i./ha",85%
same,HER effect + SAF [%],"[2]; 21 DAT, HER dose 4 g a.i./ha",60%
same,Reduction [%],"[2]; 21 DAT, HER dose 4 g a.i./ha",35%
same,HER effect [%],"[2]; 21 DAT, HER dose 4 g a.i./ha",93%
same,HER effect + SAF [%],"[2]; 21 DAT, HER dose 16 g a.i./ha",70%
same,HER effect [%],"[2]; 21 DAT, HER dose 16 g a.i./ha",95%
same,HER effect + SAF,"[3]; 21 DAT, HER dose 1 g a.i./ha",10%
same,Reduction [%],"[3]; 21 DAT, HER dose 1 g a.i./ha",67%
same,HER effect,"[3]; 21 DAT, HER dose 1 g a.i./ha",30%
same,Reduction [%],"[3]; 21 DAT, HER dose 4 g a.i./ha",78%
same,Reduction [Difference],"[3]; 21 DAT, HER dose 4 g a.i./ha",73
same,HER effect + SAF,"[3]; 21 DAT, HER dose 16 g a.i./ha",40%
same,Reduction [%],"[3]; 21 DAT, HER dose 16 g a.i./ha",58%
same,Reduction [Difference],"[3]; 21 DAT, HER dose 16 g a.i./ha",55
